In general, IC50 refers to the concentration needed to halve the response being measured.

Numbered stars: 1 amine (or outer) side, 2 acyl side, 3 side chain; on linkers, the order of the positions; unused ones are H or OH. Bridge positions count the residues as written; N and C are the ends. Square brackets hold non-standard residues; d marks the D form. Peptide text beside a SMILES is read from it. Trp(7-aza) = N[C@@H](Cc1c[nH]c2ncccc12)C(=O)O; mXylylene = c1cc(C[*:1])cc(C[*:2])c1; 2Pal = N[C@@H](Cc1ccccn1)C(=O)O; 3Pal = N[C@@H](Cc1cccnc1)C(=O)O; Tle = CC(C)(C)[C@H](N)C(=O)O; Nva = CCC[C@H](N)C(=O)O; Aib = CC(C)(N)C(=O)O; Mpa = O=C(O)CCS

Data on seven molecules can be found in patent US11814444B2, “Cyclic polypeptides for PCSK9 inhibition” (Ra Pharmaceuticals, Inc., priority 2018, dated 2023).

The experiment deals with PCSK9 (Homo sapiens, UniProt Q8NBP7). Kind of experiment: PCSK9 Alexa FRET Standard assay (displacement of AlexaFluor647 tagged cyclic peptide Reagent A). The class given is binding. Conditions: 0.5 nM PCSK9, 20 nM AF cyclic peptide Reagent A. The protocol: A solution containing 1 nM biotinylated PCSK9+2.5 nM Lance Streptavidin Europium (Strep-Eu) was made in 50 mM HEPES pH 7.4, 0.15 M NaCl, 5 mM CaCl2), 0.01% BSA, and 0.01% Surfactant P20. A separate solution containing 40 nM of the AlexaFluor tagged cyclic peptide was made in the same buffer system. An Echo was used to transfer 0.750 ul of compound to an assay plate followed by the addition of 15 ul of PCSK9+Stept-Eu and 15 ul of AF peptide. The final assay volume was 30.750 ul containing 0.5 nM PCSK9, 1.25 nM Strep-Eu, and 20 nM AF cyclic peptide. The reaction was incubated at room temperature for at least two hours prior to fluorescence measurements using an Envision Multilabel Reader. IC50 values were determined by fitting data to a sigmoidal dose-response curve using nonlinear regression. Ki was then calculated from the IC50 and the KD of AF cyclic peptide. Counts (B-counts) of the europium-labeled PCSK9 were followed to observe if compounds were […]. A fall off of the B-counts likely indicated a false positive of inhibition. Data from this procedure was reported as “A=‘numerical value’ (nanomolar)”
PCSK9, sequence (Q8NBP7 153-692): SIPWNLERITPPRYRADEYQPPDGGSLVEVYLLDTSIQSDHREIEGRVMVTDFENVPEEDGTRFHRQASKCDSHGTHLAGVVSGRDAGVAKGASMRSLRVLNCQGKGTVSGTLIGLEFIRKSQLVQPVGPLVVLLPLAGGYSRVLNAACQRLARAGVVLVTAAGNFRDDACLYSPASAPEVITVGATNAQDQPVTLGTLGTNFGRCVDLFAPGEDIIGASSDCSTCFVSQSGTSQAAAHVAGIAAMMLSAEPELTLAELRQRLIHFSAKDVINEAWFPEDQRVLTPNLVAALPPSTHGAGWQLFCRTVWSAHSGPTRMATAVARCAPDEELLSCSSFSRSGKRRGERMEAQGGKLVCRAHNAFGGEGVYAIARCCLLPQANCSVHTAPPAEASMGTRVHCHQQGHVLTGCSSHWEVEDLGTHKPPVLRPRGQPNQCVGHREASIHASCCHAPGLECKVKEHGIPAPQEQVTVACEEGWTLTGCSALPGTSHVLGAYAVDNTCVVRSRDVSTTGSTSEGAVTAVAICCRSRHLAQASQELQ

For `CCC[C@@H]1NC(=O)[C@H](Cc2c[nH]c3ncccc23)NC(=O)[C@H]([C@@H](C)O)NC(=O)C(C)(C)NC(=O)[C@H](Cc2ccc(O)cc2)NC(=O)[C@H](C(C)(C)C)NC(=O)CCSCc2cccc(c2)CSC[C@@H](C(N)=O)NC(=O)[C@H]([C@@H](C)O)NC(=O)[C@H](CCC)NC(=O)[C@H](Cc2ccc(O)cc2)NC(=O)[C@H](CCC(=O)O)NC1=O` [Compound 005] ([Mpa][Tle]Y[Aib]T[Trp(7-aza)][Nva]EY[Nva]TC-NH2; linker 1-12 via mXylylene), the IC50 was in the range of 21 to 50 µM.

On to `CCC[C@@H]1NC(=O)[C@H](Cc2c[nH]c3ncccc23)NC(=O)[C@H]([C@@H](C)O)NC(=O)[C@H](Cc2cccnc2)NC(=O)[C@H](Cc2ccc(O)cc2)NC(=O)[C@H](C(C)(C)C)NC(=O)CCSCc2cccc(c2)CSC[C@@H](C(N)=O)NC(=O)[C@H]([C@@H](C)O)NC(=O)[C@H](CCC)NC(=O)[C@H](Cc2ccc(O)cc2)NC(=O)[C@H](CCC(=O)O)NC1=O` [Compound 113] ([Mpa][Tle]Y[3Pal]T[Trp(7-aza)][Nva]EY[Nva]TC-NH2; linker 1-12 via mXylylene), for which the IC50 fell in the range of 50 to 100 µM.

`CCC[C@@H]1NC(=O)[C@H](Cc2c[nH]c3ncccc23)NC(=O)[C@H]([C@@H](C)O)NC(=O)[C@H](Cc2ccccn2)NC(=O)[C@H](Cc2ccc(O)cc2)NC(=O)[C@H](C(C)(C)C)NC(=O)CCSCc2cccc(c2)CSC[C@@H](C(N)=O)NC(=O)[C@H]([C@@H](C)O)NC(=O)[C@H](CCC)NC(=O)[C@H](Cc2ccc(O)cc2)NC(=O)[C@H](CCC(=O)O)NC1=O` [Compound 114] ([Mpa][Tle]Y[2Pal]T[Trp(7-aza)][Nva]EY[Nva]TC-NH2; linker 1-12 via mXylylene) gave an IC50 of 21 to 50 µM.

`CCC[C@H](NC(C)=O)C(=O)N[C@H]1CSCc2cccc(c2)CSC[C@@H](C(N)=O)NC(=O)[C@H]([C@@H](C)O)NC(=O)[C@H](CCC)NC(=O)[C@H](Cc2ccc(O)cc2)NC(=O)[C@H](CCC(=O)O)NC(=O)[C@H](CCC)NC(=O)[C@H](C)NC(=O)[C@H]([C@@H](C)O)NC(=O)[C@H](Cc2cnc[nH]2)NC(=O)[C@H](Cc2ccc(O)cc2)NC(=O)[C@H](C(C)(C)C)NC1=O` [Compound 230] (Ac-[Nva]C[Tle]YHTA[Nva]EY[Nva]TC-NH2; linker 2-13 via mXylylene): the IC50 fell in the range of 50 to 100 µM.

Consider `CC(=O)N[C@H]1CSCc2cccc(c2)CSC[C@@H](C(N)=O)NC(=O)[C@H]([C@@H](C)O)NC(=O)[C@H](C)NC(=O)[C@H](Cc2ccc(O)cc2)NC(=O)[C@H](CCC(=O)O)NC(=O)[C@H](C)NC(=O)[C@H](Cc2c[nH]c3ncccc23)NC(=O)[C@H]([C@@H](C)O)NC(=O)[C@H](Cc2c[nH]cn2)NC(=O)[C@H](Cc2ccc(O)cc2)NC(=O)[C@H](C(C)(C)C)NC1=O` [Compound 242] (Ac-C[Tle]YHT[Trp(7-aza)]AEYATC-NH2; linker 1-12 via mXylylene), for which the half-inhibitory concentration (IC50) lay in the range of 1 to 21 µM.

In turn, `CCC[C@H](NC(C)=O)C(=O)N[C@H]1CSCc2cccc(c2)CSC[C@@H](C(N)=O)NC(=O)[C@H]([C@@H](C)O)NC(=O)[C@H](CCC)NC(=O)[C@H](Cc2c[nH]c3ncccc23)NC(=O)[C@H](CCC(=O)O)NC(=O)[C@H](CCC)NC(=O)[C@H](Cc2c[nH]c3ncccc23)NC(=O)[C@H]([C@@H](C)O)NC(=O)[C@H](Cc2c[nH]cn2)NC(=O)[C@H](Cc2ccc(O)cc2)NC(=O)[C@H](C(C)(C)C)NC1=O` [Compound 243] (Ac-[Nva]C[Tle]YHT[Trp(7-aza)][Nva]E[Trp(7-aza)][Nva]TC-NH2; linker 2-13 via mXylylene) came in with an IC50 of 50 to 100 µM.

Molecule `CC(=O)N[C@H]1CSCc2cccc(c2)CSC[C@H](C(N)=O)NC(=O)[C@H]([C@@H](C)O)NC(=O)[C@H](C)NC(=O)[C@H](Cc2ccc(O)cc2)NC(=O)[C@H](CCC(=O)O)NC(=O)[C@H](C)NC(=O)[C@H](Cc2c[nH]c3ncccc23)NC(=O)[C@H]([C@@H](C)O)NC(=O)[C@H](Cc2c[nH]cn2)NC(=O)[C@H](Cc2ccc(O)cc2)NC(=O)[C@H](C(C)(C)C)NC1=O` [Compound 245] (Ac-C[Tle]YHT[Trp(7-aza)]AEYAT[dC]-NH2; linker 1-12 via mXylylene) showed an IC50 of 50 to 100 µM.
